One block for each compound: values may come before it.
Columns and labels:
Histone deacetylase 1 [1] = biological target: T1, Histone deacetylase 1 (Homo sapiens, UniProt Q13547); experiment: Inhibition of human full-length recombinant HDAC1 using p53 fluorogenic peptide ([…] residues) (RHKK(Ac)) as substrate by fluorescence method
Histone deacetylase 2 [2] = biological target: T2, Histone deacetylase 2 (Homo sapiens, UniProt Q92769); experiment: Inhibition of human full-length recombinant HDAC2 using fluorogenic peptide ([…] residues) (RHKK(Ac)) as substrate by fluorescence method
T2 sequence (Q92769 whole entry): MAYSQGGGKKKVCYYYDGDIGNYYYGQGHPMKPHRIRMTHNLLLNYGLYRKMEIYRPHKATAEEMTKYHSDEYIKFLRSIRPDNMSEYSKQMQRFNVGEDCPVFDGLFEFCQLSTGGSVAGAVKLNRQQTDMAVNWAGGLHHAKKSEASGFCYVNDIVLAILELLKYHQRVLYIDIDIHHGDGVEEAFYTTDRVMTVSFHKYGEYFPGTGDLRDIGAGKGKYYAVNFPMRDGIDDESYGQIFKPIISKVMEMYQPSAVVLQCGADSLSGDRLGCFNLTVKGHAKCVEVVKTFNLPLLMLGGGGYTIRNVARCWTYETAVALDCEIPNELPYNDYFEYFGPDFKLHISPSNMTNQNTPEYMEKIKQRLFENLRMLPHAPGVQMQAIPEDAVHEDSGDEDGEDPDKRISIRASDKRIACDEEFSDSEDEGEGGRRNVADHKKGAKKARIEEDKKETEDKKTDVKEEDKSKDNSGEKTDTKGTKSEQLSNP

[3] = biological target: T3, Protein deacetylase HDAC6 (Homo sapiens, UniProt Q9UBN7); experiment: Inhibition of human full-length recombinant HDAC6 using fluorogenic peptide […] (RHKK(Ac)) as substrate by fluorescence method
T3 sequence (Q9UBN7 whole entry): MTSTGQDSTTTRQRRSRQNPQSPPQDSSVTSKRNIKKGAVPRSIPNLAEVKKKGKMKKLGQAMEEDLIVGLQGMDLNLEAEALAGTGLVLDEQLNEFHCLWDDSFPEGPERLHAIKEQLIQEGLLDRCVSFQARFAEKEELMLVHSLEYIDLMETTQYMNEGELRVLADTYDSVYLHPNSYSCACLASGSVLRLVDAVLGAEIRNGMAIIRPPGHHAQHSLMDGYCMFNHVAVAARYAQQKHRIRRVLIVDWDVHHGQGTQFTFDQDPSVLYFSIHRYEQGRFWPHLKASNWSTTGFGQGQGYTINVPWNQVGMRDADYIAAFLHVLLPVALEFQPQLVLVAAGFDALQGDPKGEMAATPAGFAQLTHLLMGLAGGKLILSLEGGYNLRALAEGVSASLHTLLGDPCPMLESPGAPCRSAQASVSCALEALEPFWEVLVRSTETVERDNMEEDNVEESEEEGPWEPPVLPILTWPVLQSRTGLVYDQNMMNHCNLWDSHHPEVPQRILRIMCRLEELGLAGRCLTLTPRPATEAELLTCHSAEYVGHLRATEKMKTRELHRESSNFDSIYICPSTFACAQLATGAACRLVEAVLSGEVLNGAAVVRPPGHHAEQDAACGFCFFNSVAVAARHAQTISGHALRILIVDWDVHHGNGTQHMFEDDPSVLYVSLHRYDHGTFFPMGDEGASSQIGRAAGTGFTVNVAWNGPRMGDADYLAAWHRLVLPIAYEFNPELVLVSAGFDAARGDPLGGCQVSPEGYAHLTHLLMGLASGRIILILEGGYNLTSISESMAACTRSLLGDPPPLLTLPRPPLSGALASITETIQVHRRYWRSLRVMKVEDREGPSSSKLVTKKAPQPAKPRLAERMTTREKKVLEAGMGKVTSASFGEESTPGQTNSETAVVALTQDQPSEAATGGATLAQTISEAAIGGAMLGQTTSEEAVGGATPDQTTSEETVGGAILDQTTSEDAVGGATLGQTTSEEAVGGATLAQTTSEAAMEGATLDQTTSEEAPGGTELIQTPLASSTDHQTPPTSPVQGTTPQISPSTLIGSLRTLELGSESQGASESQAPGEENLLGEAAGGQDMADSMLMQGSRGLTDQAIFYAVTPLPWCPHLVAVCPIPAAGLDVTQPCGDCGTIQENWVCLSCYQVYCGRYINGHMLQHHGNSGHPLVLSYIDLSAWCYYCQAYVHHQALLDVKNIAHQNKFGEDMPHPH

Histone deacetylase = experiment: Inhibition of HDAC in human HeLa cell extracts using Fluor de lys as substrate incubated for 30 mins by fluorimetric analysis
Histone deacetylase 3 = Histone deacetylase 3 (Homo sapiens, UniProt O15379); experiment: Inhibition of HDAC3 (unknown origin)
[4] = biological target: T4, Polyamine deacetylase HDAC10 (Homo sapiens, UniProt Q969S8); experiment: Inhibition of HDAC10 (unknown origin)
T4 sequence (Q969S8 whole entry): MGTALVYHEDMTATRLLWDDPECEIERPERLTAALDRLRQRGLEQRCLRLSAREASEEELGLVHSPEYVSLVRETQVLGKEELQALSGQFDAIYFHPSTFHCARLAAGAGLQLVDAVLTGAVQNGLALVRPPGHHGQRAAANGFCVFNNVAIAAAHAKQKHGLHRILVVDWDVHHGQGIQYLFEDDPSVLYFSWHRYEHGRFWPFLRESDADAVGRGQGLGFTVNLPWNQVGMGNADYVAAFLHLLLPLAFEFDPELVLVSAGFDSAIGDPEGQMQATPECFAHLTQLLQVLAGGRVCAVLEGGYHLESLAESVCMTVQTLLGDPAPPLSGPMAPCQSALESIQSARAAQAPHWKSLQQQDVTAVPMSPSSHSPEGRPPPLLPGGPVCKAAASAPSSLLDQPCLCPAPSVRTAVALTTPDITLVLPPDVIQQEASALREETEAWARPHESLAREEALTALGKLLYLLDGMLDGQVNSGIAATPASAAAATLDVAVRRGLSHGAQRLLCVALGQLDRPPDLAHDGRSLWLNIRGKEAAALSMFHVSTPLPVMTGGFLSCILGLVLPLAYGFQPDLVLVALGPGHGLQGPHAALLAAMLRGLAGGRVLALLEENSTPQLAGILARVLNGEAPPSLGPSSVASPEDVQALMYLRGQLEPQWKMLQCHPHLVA

Histone deacetylase 1 [5] = biological target: T1, Histone deacetylase 1; experiment: Inhibition of HDAC1 (unknown origin)
Histone deacetylase 11 = Histone deacetylase 11 (Homo sapiens, UniProt Q96DB2); experiment: Inhibition of HDAC11 (unknown origin)
Sequence of Histone deacetylase 11 (Q96DB2 whole entry): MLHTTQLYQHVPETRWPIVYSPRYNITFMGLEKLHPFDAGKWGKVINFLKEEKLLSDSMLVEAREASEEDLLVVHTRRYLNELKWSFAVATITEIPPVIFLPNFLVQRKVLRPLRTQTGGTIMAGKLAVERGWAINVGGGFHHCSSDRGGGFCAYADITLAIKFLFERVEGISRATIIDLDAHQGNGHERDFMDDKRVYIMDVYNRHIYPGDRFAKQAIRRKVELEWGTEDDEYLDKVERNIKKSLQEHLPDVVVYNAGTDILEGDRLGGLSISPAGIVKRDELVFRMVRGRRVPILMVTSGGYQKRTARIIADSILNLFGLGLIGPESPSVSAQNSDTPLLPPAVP

Histone deacetylase 5 = Histone deacetylase 5 (Homo sapiens, UniProt Q9UQL6); experiment: Inhibition of HDAC5 (unknown origin)
Sequence of Histone deacetylase 5 (Q9UQL6 whole entry): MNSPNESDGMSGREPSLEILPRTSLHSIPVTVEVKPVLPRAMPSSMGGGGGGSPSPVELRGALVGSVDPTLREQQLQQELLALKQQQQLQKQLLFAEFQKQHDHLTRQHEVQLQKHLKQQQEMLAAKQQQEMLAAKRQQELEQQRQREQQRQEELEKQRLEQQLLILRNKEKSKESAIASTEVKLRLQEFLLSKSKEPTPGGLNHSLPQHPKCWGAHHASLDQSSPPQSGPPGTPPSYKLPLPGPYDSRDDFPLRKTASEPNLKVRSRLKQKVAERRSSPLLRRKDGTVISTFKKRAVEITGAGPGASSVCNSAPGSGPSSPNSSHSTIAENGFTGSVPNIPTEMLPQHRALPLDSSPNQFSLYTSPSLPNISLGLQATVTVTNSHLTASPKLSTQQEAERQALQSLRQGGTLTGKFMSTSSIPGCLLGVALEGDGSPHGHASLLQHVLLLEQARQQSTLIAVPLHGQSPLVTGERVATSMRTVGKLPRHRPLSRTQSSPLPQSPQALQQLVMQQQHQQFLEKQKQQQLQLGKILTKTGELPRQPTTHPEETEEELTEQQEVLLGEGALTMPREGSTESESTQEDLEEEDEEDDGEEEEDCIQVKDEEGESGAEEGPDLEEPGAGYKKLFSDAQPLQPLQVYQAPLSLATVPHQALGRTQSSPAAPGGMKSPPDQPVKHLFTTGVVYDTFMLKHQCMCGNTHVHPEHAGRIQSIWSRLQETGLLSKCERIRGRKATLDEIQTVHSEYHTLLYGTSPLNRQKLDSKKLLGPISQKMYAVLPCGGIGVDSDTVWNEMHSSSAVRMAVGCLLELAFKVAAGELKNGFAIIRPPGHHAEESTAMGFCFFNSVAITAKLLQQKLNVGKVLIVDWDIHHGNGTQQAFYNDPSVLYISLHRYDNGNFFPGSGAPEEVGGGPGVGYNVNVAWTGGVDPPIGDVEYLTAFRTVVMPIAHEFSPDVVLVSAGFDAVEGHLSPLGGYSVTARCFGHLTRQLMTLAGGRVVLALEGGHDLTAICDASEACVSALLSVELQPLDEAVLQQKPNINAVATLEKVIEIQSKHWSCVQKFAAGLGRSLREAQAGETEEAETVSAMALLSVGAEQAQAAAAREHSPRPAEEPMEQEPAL

Histone deacetylase 8 = Histone deacetylase 8 (Homo sapiens, UniProt Q9BY41); experiment: Inhibition of HDAC8 (unknown origin)
Sequence of Histone deacetylase 8 (Q9BY41 whole entry): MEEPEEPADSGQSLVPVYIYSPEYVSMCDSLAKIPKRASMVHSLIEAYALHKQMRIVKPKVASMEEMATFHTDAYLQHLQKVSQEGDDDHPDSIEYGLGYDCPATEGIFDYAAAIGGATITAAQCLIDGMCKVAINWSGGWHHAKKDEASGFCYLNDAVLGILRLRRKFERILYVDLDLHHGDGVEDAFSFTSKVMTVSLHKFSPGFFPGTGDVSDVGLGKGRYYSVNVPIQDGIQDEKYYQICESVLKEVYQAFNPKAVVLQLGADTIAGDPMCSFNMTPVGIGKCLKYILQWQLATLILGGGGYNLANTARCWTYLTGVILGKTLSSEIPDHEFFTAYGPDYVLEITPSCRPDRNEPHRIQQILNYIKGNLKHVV

Histone deacetylase 4 = Histone deacetylase 4 (Homo sapiens, UniProt P56524); experiment: Inhibition of HDAC4 (unknown origin)
Sequence of Histone deacetylase 4 (P56524 whole entry): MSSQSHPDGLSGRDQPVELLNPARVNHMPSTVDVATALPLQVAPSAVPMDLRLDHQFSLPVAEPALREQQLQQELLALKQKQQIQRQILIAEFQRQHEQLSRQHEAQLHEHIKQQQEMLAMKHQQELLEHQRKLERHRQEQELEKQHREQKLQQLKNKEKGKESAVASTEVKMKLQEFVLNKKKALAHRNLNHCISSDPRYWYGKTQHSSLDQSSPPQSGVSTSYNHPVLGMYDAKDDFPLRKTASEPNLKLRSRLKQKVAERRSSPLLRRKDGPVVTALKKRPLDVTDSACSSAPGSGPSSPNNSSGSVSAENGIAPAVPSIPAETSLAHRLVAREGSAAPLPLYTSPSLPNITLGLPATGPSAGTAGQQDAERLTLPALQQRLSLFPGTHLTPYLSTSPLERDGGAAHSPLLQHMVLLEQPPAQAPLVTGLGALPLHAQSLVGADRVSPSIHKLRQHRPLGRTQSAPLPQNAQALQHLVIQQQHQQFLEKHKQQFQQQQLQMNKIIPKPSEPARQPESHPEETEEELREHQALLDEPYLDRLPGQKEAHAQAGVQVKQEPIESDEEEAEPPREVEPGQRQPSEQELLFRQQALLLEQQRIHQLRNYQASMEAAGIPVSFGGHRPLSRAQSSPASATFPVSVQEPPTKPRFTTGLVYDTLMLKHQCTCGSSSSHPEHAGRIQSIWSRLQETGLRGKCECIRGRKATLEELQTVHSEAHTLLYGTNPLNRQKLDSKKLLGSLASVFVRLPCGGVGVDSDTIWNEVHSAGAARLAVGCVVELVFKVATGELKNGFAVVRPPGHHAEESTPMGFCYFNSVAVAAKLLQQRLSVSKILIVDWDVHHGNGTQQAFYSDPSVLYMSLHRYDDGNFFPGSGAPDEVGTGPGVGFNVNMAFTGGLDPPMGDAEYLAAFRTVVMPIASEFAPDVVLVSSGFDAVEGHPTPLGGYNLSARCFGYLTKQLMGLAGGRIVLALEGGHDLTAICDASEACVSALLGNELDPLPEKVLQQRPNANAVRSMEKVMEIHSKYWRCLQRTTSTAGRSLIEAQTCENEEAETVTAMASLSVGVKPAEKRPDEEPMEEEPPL

Histone deacetylase 9 = Histone deacetylase 9 (Homo sapiens, UniProt Q9UKV0); experiment: Inhibition of HDAC9 (unknown origin)
Sequence of Histone deacetylase 9 (Q9UKV0 whole entry): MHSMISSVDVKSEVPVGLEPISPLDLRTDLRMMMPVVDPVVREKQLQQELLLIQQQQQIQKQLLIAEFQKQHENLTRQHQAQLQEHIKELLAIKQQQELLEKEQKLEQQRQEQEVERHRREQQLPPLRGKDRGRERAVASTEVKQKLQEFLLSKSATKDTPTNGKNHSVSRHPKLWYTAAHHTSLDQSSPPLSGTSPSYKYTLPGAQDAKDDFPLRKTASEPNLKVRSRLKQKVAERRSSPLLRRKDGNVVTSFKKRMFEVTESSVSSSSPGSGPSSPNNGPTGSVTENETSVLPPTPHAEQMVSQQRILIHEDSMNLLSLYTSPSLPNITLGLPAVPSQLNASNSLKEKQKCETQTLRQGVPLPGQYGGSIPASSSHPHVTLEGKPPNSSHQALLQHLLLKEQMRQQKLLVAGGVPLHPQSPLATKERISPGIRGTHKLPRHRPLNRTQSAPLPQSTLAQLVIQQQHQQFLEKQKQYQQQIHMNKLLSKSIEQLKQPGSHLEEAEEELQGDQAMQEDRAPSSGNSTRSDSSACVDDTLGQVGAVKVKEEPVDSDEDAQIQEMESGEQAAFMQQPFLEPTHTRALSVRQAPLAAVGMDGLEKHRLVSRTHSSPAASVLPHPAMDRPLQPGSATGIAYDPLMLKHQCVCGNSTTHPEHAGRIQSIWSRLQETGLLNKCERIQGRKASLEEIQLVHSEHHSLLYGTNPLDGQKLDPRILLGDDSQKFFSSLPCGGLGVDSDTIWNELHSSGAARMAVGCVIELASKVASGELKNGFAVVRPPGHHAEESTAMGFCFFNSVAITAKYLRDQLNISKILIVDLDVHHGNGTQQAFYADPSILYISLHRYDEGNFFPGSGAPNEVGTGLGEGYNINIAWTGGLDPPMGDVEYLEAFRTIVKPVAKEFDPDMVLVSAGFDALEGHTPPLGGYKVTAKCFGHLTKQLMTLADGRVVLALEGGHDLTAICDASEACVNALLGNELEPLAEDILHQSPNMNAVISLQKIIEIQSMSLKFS

Histone deacetylase 2 [6] = biological target: T2, Histone deacetylase 2; experiment: Inhibition of HDAC2 (unknown origin)
[7] = biological target: T3, Protein deacetylase HDAC6; experiment: Inhibition of HDAC6 (unknown origin)
PC-3 = experiment: Antiproliferative activity against human PC3 cells incubated for 72 hrs by MTT assay; format: functional, cell-based; conditions: PC-3, 72 h
HCT-116 [8] = experiment: Antiproliferative activity against human HCT116 cells incubated for 72 hrs by MTT assay; format: functional, cell-based; conditions: HCT-116, 72 h
Histone deacetylase 1 [9] = biological target: T1, Histone deacetylase 1; experiment: Inhibition of human HDAC1 using p53 fluorogenic peptide (379 to 382 residues) RHKKAc as substrate by fluorescence-based assay
[10] = biological target: T3, Protein deacetylase HDAC6; experiment: Inhibition of human HDAC6 using p53 fluorogenic peptide (379 to 382 residues) RHKKAc as substrate by fluorescence-based assay
Histone deacetylase 2 [11] = biological target: T2, Histone deacetylase 2; experiment: Inhibition of human HDAC2 using p53 fluorogenic peptide (379 to 382 residues) RHKKAc as substrate by fluorescence-based assay
Homo sapiens [12] = species: Homo sapiens; experiment: Selectivity ratio of IC50 for human HDAC1 to IC50 for human HDAC6
Histone deacetylase 1 [13] = biological target: T1, Histone deacetylase 1; experiment: Inhibition of HDAC1 (unknown origin) using (AMC)-labelled p53 peptide( 379 to 382 residues) RHKKAc as substrate
SH-SY5Y = experiment: Antiproliferative activity against human SH-SY5Y cells incubated for 72 hrs by sulphorhodamine B assay; format: functional, cell-based
[14] = biological target: T3, Protein deacetylase HDAC6; experiment: Inhibition of HDAC6 (unknown origin) using (AMC)-labelled p53 peptide( 379 to 382 residues) RHKKAc as substrate
HCT-116 [15] = experiment: Antitumor activity against human HCT116 cells xenografted in BALB/c athymic nude mouse assessed as tumor growth inhibition at 20 mg/kg administered twice daily for 14 days and measuring daily during compound dosing relative to control; format: functional; conditions: HCT-116, 336 h, time 14 day, read-out: TGI
KMS-11 = experiment: Antiproliferative activity against human KMS-11 cells incubated for 72 hrs by sulphorhodamine B assay; format: functional
Homo sapiens [16] = species: Homo sapiens; experiment: Selectivity ratio of IC50 for human HDAC2 to IC50 for human HDAC6
Homo sapiens [17] = species: Homo sapiens; experiment: Selectivity ratio of IC50 for human HDAC11 to IC50 for human HDAC6
Homo sapiens [18] = species: Homo sapiens; experiment: Selectivity ratio of IC50 for human HDAC5 to IC50 for human HDAC6
Homo sapiens [19] = species: Homo sapiens; experiment: Selectivity ratio of IC50 for human HDAC4 to IC50 for human HDAC6
Homo sapiens [20] = species: Homo sapiens; experiment: Selectivity ratio of IC50 for human HDAC8 to IC50 for human HDAC6
Homo sapiens [21] = species: Homo sapiens; experiment: Selectivity ratio of IC50 for human HDAC10 to IC50 for human HDAC6
Homo sapiens [22] = species: Homo sapiens; experiment: Selectivity ratio of IC50 for human HDAC9 to IC50 for human HDAC6
Homo sapiens [23] = species: Homo sapiens; experiment: Selectivity ratio of IC50 for human HDAC3 to IC50 for human HDAC6
Homo sapiens [24] = species: Homo sapiens; experiment: Selectivity ratio of IC50 for human HDAC7 to IC50 for human HDAC6
OPM-2 = experiment: Cytotoxicity against human OPM-2 cells incubated for 48 hrs by MTT assay; format: functional, cell-based; conditions: OPM-2, 48 h
[25] = biological target: NAD-dependent protein deacetylase sirtuin-2 (Homo sapiens, UniProt Q8IXJ6); experiment: Inhibition of human sirtuin 2 using fluoro-lysine sirtuin 2 deacetylase as substrate incubated for 60 mins by fluorimetry
MM1.S = experiment: Cytotoxicity against human MM1.S cells incubated for 48 hrs by MTT assay; format: functional, cell-based
[26] = biological target: NAD-dependent protein deacetylase sirtuin-1 (Homo sapiens, UniProt Q96EB6); experiment: Inhibition of human sirtuin 1 using fluorogenic HDAC substrate incubated for 20 mins by fluorimetry

T1 sequence (Q13547 whole entry): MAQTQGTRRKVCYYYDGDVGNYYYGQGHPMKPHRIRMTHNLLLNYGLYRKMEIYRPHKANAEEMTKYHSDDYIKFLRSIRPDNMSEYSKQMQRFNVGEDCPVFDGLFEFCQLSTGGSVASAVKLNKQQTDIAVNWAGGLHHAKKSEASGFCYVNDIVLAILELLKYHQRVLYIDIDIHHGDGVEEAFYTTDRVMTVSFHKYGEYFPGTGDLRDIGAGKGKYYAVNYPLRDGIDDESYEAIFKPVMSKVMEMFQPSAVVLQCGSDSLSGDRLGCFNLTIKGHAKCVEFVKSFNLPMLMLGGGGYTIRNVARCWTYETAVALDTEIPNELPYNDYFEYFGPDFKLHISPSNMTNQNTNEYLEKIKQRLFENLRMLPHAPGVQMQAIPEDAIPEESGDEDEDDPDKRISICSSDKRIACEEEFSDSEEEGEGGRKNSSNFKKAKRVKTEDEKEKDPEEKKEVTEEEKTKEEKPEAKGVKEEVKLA

IC50 (Histone deacetylase 1 [1]): 19.4 nM
IC50 (Histone deacetylase 2 [2]): 128 nM
IC50 [3]: 2.46 nM
IC50 (Histone deacetylase): 0.07 µM
Structure (SMILES): O=C(/C=C/c1cccn(CCCc2ccc3ccccc3c2)c1=O)NO

IC50 (Histone deacetylase 3): > 8 µM
IC50 [4]: > 8 µM
IC50 (Histone deacetylase 1 [5]): > 8 µM
IC50 (Histone deacetylase 11): 2400 nM
IC50 (Histone deacetylase 5): > 8 µM
IC50 (Histone deacetylase 8): 1100 nM
IC50 (Histone deacetylase 4): > 8 µM
IC50 (Histone deacetylase 9): > 8 µM
IC50 (Histone deacetylase 2 [6]): > 8 µM
IC50 [7]: 8 nM
Structure (SMILES): O=C(NO)c1ccc(CN2c3ccccc3S(=O)(=O)C[C@@H]3CCCC[C@@H]32)cc1

IC50 (PC-3): 11.4 µM
IC50 (HCT-116 [8]): 8.08 µM
IC50 (Histone deacetylase 1 [9]): 1710 nM
IC50 [10]: 12.4 nM
IC50 (Histone deacetylase 2 [11]): 5.5 µM
Structure (SMILES): O=C(NO)c1ccc(Cn2c(=O)c(F)cn(C3CCCO3)c2=O)cc1 (centres undefined)

Ratio IC50 (Homo sapiens [12]): 1400
Structure (SMILES): Cc1nc2ccccc2n1Cc1ccc(C(=O)NO)cc1F

Structure (SMILES): CC(/C=C/C(=O)NO)=C\c1ccc(NS(=O)(=O)c2ccc(N(CCCl)CCCl)cc2)cc1
IC50 (Histone deacetylase 1 [13]): 14 µM
IC50 (SH-SY5Y): 280 nM
IC50 [14]: 479 nM
inhibition in vivo at 20 mg/kg (HCT-116 [15]): 78%
GI50 (KMS-11): 480 nM

Ratio IC50 (Homo sapiens [12]): > 100
Ratio IC50 (Homo sapiens [16]): > 100
Ratio IC50 (Homo sapiens [17]): > 100
Ratio IC50 (Homo sapiens [18]): > 100
Ratio IC50 (Homo sapiens [19]): > 100
Ratio IC50 (Homo sapiens [20]): > 100
Ratio IC50 (Homo sapiens [21]): > 100
Ratio IC50 (Homo sapiens [22]): > 100
Ratio IC50 (Homo sapiens [23]): > 100
Ratio IC50 (Homo sapiens [24]): > 100
Structure (SMILES): O=C(NO)c1ccc(NCc2csc3ccccc23)cc1

IC50 [25]: > 1000 nM
IC50 [26]: > 1000 nM
Structure (SMILES): O=C(CCCCCCNC(=O)c1cnc(N(c2ccccc2)c2ccccc2)nc1)NO [RICOLINOSTAT]
IC50 (OPM-2): 2000 nM
IC50 (MM1.S): 2000 nM

— ChEMBL document CHEMBL4673207, “Recent advances in the discovery of potent and selective HDAC6 inhibitors” (Eur J Med Chem, 2018)
